This is an account of results in patent US20080089859A1, “ADMINISTRATION OF SLEEP RESTORATIVE AGENTS” (priority 2001, published 2008).

Series [1] relates to patients with Systemic Lupus Erythematosis. As to the kind of experiment: Treatment of patients with Systemic Lupus Erythematosis. Format: in vivo, human. As for the experimental part:
Patients with Systemic Lupus Erythematosis were treated according to the present invention.
The dose range of pramipexole ranged from 2-6 mg qhs.

The test system of series [2] is rheumatoid arthritis (Ra) and Psoriatic arthritis (PsA) patients. As to the kind of experiment: Study of Example 1 continued to 18 months (Example 2). It counts as in vivo, human. An excerpt: The study of Example 1 was continued to 18 months. […] Fibromyalgia was a surrogate for a lack of deep (e.g., stage IV) restorative sleep.
JC refers to the number of swollen tender joints.

Series [3] relates to patients having rheumatoid arthritis. As to the kind of experiment: Rheumatoid arthritis patients on Leflunamide given sleep restorative agents. As to conditions: lorazepam, clonazepam and/or pramipexole. Format: in vivo, human.
For series [4], the system named is patient with Reiter's Syndrome. As to conditions: one patient on Etanercept; pramipexole up to 4 mg qhs.
The subject of series [5] is patients with Multiple Sclerosis (MS). As to conditions: for Tolerability: human, in vivo. As for the experimental part:
Eight patients with Multiple Sclerosis (MS) were treated according to the present invention.

The test system of series [6] is patient with chronic gout. Put plainly: Treatment of a patient with chronic gout and severe synovitis. Format: in vivo, human. As to conditions: one patient. As for the experimental part:
Adding colchicine, hydroxychloroquine and Etanercept only allowed them to decrease prednisone to 15 mg qd.

For series [7], the system named is patients with Sjogren's Syndrome. As to the kind of experiment: Treatment of patients with dry eyes and mouth from Sjogren's Syndrome. Format: in vivo, human. As to conditions: Lorazepam 1-2 mg po qhs, Pramipexole later 0.5-4.0 mg qhs. On the procedure:
Three patients with dry eyes and mouth from Sjogren's Syndrome, were treated with lorazepam or pramipexole. […] Lorazepam was administered at 1-2 mg po qhs. Pramipexole was later administered at 0.5-4.0 mg qhs.

The test system of series [8] is patients with Behcet's Syndrome. As to the kind of experiment: Treatment of patients with Behcet's Syndrome. It counts as in vivo, human. As for the experimental part:
Three patients with Behcet's Syndrome were treated according to the present invention. For one patient, prednisone administration was supplemented with lorazepam at 2 mg qhs. […] For a second patient, lorazepam at 2 mg qhs was co-admnistered with Dapsone and prednisone.

Series [9] deals with patients with Palindromic Rheumatism. As to the kind of experiment: Treatment of patients with Palindromic Rheumatism. Format: in vivo, human. As to conditions: five patients; clonazepam 2 mg, pramipexole 1-6 mg and/or lorazepam 2 mg qhs. On the procedure: Five patient with Palindromic Rheumatism were treated according to the present invention. After adding clonazepam 2 mg, pramipexole 1-6 mg and/or lorazepam 2 mg qhs to their treatment, the patients reported that episodic severe pain decreased dramatically, by 90%.

In series [10] the test system is patients having rheumatoid arthritis. As to the kind of experiment: Rheumatoid arthritis patients on Infliximab given sleep restorative agents. Format: in vivo, human. As to conditions: lorazepam 1-2 mg qhs or pramipexole.
In series [11] the test system is patients with Ankylosing Spondylitis. As to the kind of experiment: Treatment of patients with Ankylosing Spondylitis. It counts as in vivo, human. As for the experimental part: Six patients with Ankylosing Spondylitis were treated according to the present invention. […] The patients were administered lorazepam 1-2 mg qhs or pramipexole 0.5-3.0 mg qhs.
In series [12] the test system is patient with ocular and articular Sarcoidosis. As to conditions: one patient steroid-dependent for two years; Pramipexole to 3 mg qhs. An excerpt:
A patient with ocular and articular Sarcoidosis was steroid-dependent for two years.

For series [13], the system named is patients having rheumatoid arthritis. Put plainly: Rheumatoid arthritis patients on prednisone given Ropinirole. It counts as in vivo, human. As to conditions: Ropinirole 2-20 mg qhs.
Series [14] relates to patients with rheumatoid arthritis. As to conditions: cited from earlier work.
The test system of series [15] is rheumatoid arthritis (Ra) and Psoriatic arthritis (PsA) patients. Put plainly: Open-label retrospective chart analysis of patients starting Etanercept, with sleep/fibromyalgia treatment (Example 1). It counts as in vivo, human. An excerpt:
The effect of sleep disturbance and/or overt fibromyalgia (FM) on Etanercept (ENBREL®, Immunex) efficacy was monitored in an open-label, retrospective chart analysis of rheumatoid arthritis (Ra) and Psoriatic arthritis (PsA) patients starting Etanercept due to inadequate response to prior disease-modifying and steroid treatment. Sixty six (66) consecutive patients (19 males, 47 Females; 39 positive for rheumatoid factor for rheumatoid arthritis, 13 negative for rheumatoid factor for rheumatoid arthritis, 14 having PsA) were treated at a suburban, referral-based rheumatology clinic. The patients were monitored for swollen/tender joints (joint count, JC), fibromyalgia tender point score, restorative sleep quality, and concomitant medication use, before and after adding Etanercept treatment. Concomitant medication use included prednisone, methotrexate, non-steroidal anti-inflammatory drugs (NSAIDS), azothioprine, sulfasalazine, and hydroxychloroquine.
All patients with overt FM and non-restorative sleep were treated with options for fibromyalgia (FM), including Trazodone, Lorazepam, Clonazepam, Carisoprodol, and/or Pramipexole as needed to decrease FM pain and sleep disturbance as previously reported. (Arthritis & Rheumatology 43:9 A1599 (2000); Arthritis & Rheumatology 42:9 A385 (1999); Arthritis & Rheumatology 41:9 A1359 (1998).)
The patient criteria were as follows: The mean arthritis duration was 9.2±1.3 years. Etanercept use was 14±1.5 months. The average age of the patients was 50.5±4.3 years. Their average initial erythrocyte sedimentation rate (ESR) was 22.0±8.0. Previous DMARDs 2.4±0.3. Their initial Joint Count was as follows: PsA 8.3, Ra-8.1, and Ra+13.2 The disease groups were combined: 20 patients had active FM (aFM). 29 never had FM (no FR).

Marks after values point to notes of the source that are not given here.

In the case of `CCCNC1CCc2nc(N)sc2C1` (stereo not drawn) [Pramipexole, 2-amino-4,5,6,7-tetrahydro-6-(propylamino)benzo-thiazole], the “Decrease or d/c of prednisone” value in [1] (8 patients, pramipexole 2-6 mg qhs) is listed as 80%. Also, the Prednisone dose reached in series [1] (person with life threatening leukopenia, steroids 60 mg qd before, Pramipexole increased to 3.5 mg q hs over 3 months) was found to be 5 mg qd. The Symptoms noted result in series [1] (same patient after pramipexole 3-4.5 mg qhs) is “much less fatigue, anemia, joint pain, and had stable kidney function”. For the same compound, the Prednisone dose reached in series [1] (same patient, pramipexole 3-4.5 mg qhs added, first time in 7 years) was 5 mg qd. For the same compound, in series [1] (same person, after Pramipexole), the Complete blood count entry is recorded as “maintaining normal complete blood count”. Also, the “Response of improved patients after adding the agent to their treatment” value in [2] (12 month to 18 month time point, on Etanercept) is “did much better from the 12 month time point to the 18 month time point”. For the same compound, the “Expected prednisone discontinuation after conversion back to inactive FM” value in series [2] (one patient who developed FM and needs prednisone 10 mg qd, planned treatment) is on record as “expected to allow them to discontinue prednisone”. In [3], the Leflunamide efficacy entry is “increased Leflunamide efficacy”. Also, in [4], the “Discontinuation of other medications” value was “able to discontinue methotrexate, steroids 5-10 mg qd, and narcotics”; the “Response of dactylitis and synovitis” value was “dactylitis and synovitis responded better to Etanercept”. In [5], the Tolerability entry is listed as “intolerant”. Moreover, in series [5] (three patients, pramipexole and/or lorazepam added), the MS activity result is “MS was quiet for over three years”. The “Discontinuation of other medications” value in series [6] (pramipexole and lorazepam added together) is “allowed the patient to discontinue steroids, colchicine, hydroxychoroquine, and narcotics”. In series [7] (3 patients on Hydroxychloroquine 200 mg po bid, nearly complete resolution in third patient), the “Resolution of dryness (eyes and mouth)” value is recorded as “Complete resolution of the dryness in 2 of 3 patients”. The Hydroxychloroquine sparing entry in [7] (3 patients) was “One daily dose of Hydroxychloroquine was discontinued and benefit maintained”. For the same compound, the “Symptoms observed in the patient” value in series [8] (second patient (pramipexole added to lorazepam), third patient (clonazepam 2 mg qhs)) was “No fatigue, mouth ulcers, skin vasculitis, hoarse voice or seizures were observed”. Also, in series [8] (single patients, lorazepam 2 mg qhs (patient 1), pramipexole added to lorazepam (patient 2), clonazepam 2 mg qhs (patient 3)), the Discontinuation of prednisone result is reported as “prednisone 5 mg qd could be discontinued”. Moreover, in [9], the “Decrease of episodic severe pain” value was found to be 90%; the Other medications stopped entry was “off narcotics, steroids, Etanercept, Infliximab, leflunamide, Azothioprine, sulfasalazine, hydroxychloroquine and colchicine”. The Infliximab efficacy result in series [10] is “increased efficacy of Infliximab”. In addition, in series [11] (six patients on Methotrexate, steroids 2-10 mg qd and Etanercept, lorazepam 1-2 mg qhs or pramipexole 0.5-3.0 mg qhs), the “Discontinuation of Methotrexate and steroids” value is “All six patients were able to discontinue Methotrexate and steroids”. Further, the “Decrease of steroids with disease still controlled” value in [12] is 90%.
In the case of `CCCN(CCC)CCc1cccc2c1CC(=O)N2.Cl` [Ropinirole, 4-[2-(dipropylamino)-ethyl]-1,3-dihydro-2H-indol-2-one mono hydrochloride], the Tolerability result in series [5] is “intolerant”. The Prednisone dose entry in series [13] is recorded as “able to lower their prednisone doses”.
On to Etanercept, for which the “MTX abs (absolute change of methotrexate use)” value in series [2] (18 months, Active FM (N 6)) is listed as “(6) +0.8 mg”; in series [2] (18 months, Inactive FM (N 9)), “(9) −20.1 mg”; in series [2] (18 months, No FM (N 16), p 0.0002 across groups), “(16) −17.5 mg”. Moreover, the “Pred abs (absolute change of steroid use)” value in series [2] (18 months, Active FM (N 9)) is reported as “(9) −7.15 mg”; in series [2] (18 months, Inactive FM (N 13)), “(13) −7.92 mg”; in series [2] (18 months, No FM (N 19), p 0.8649 across groups), “(19) −7.32 mg”. Besides, the “Joint count abs (absolute change)” value in [2] (18 months, Active FM (N 10)) is “(10) −10.95”; in series [2] (18 months, Inactive FM (N 23)), “(23) −8.98”; in [2] (18 months, No FM (N 28), p 0.5685 across groups), “(28) −11.54”. Further, the “JC2, number of swollen tender joints, mean” value in [2] (patients converted from active FM to inactive FM, 12 months, study entry 9.1) is on record as 4.6 # tender joints. Besides, in series [2] (patients converted from active FM to inactive FM, 12 months, study entry 10.5), the “Pred2, Pred used, mean” value was 5.5 mg. Moreover, in series [2] (patients converted from active FM to inactive FM, 12 months, study entry 17.5), the “MTX2, methotrexate used, mean” value was 0 mg. For the same compound, the “JC3, number of swollen tender joints, mean” value in series [2] (patients converted from active FM to inactive FM, 18 months, study entry 9.1) is 0 # tender joints. Besides, in series [2] (patients converted from active FM to inactive FM, 18 months, study entry 10.5), the “Pred3, Pred used, mean” value worked out at 1.8 mg. For the same compound, the “MTX3, methotrexate used, mean” value in [2] (patients converted from active FM to inactive FM, 18 months, study entry 17.5) is 0 mg. In series [6] (colchicine, hydroxychloroquine and Etanercept added together, before sleep agents), this compound returned a Prednisone dose reached of 15 mg qd. Further, in series [14], the “Patients who may not respond” value is listed as 15-20%. Moreover, the “% Change Joint Count” value in [15] (No FM patients) is on record as −93.9 ± 1.9%; in [15] (aFM patients, M-W P 0.001), −47.8 ± 14.%; in series [15] (iFM patients), −95.0 ± 1.9%. Also, the “% Change Methotrexate Dose” value is given as −89.5 ± 8.4% in [15] (No FM patients); −11.3 ± 4.5% in [15] (aFM patients, M-W P < 0.001); −100. ± 0.0% in [15] (iFM patients). In addition, the “% Change Prednisone Dose” value in [15] (No FM patients) is given as −96.3 ± 4.0%; in series [15] (aFM patients, M-W P 0.001) it was −48.5 ± 15.%; in [15] (iFM patients) it was −94.5 ± 3.6%. Moreover, the “Δ Pred., prednisone dose after adding Etanercept” value is given as 8.0 → 0.3 mg/d in series [15] (No FM patients (29), before 8.0); 10.3 → 5.9 # mg/d in series [15] (aFM patients (20), before 10.3, M-W P 0.1); 7.3 → 0.4 mg/d in series [15] (iFM patients (17), before 7.3). In addition, the “Δ MTX, methotrexate dose after adding Etanercept” value in series [15] (No FM patients (29), before 19.1) is on record as 19.1 → 2.0 mg/wk; in [15] (aFM patients (20), before 15.0, M-W P 0.002), 15.0 → 13.3 ** mg/wk; in series [15] (iFM patients (17), before 19.7) it was 19.7 → 0.0 mg/wk. Moreover, the “Δ Joint Count, value after adding Etanercept” value in [15] (No FM patients (29), before Etanercept 11.6) is 11.6 → 0.7; in [15] (aFM (active fibromyalgia) patients (20), before Etanercept 11.5, M-W P 0.066), 11.5 → 5.9 *; in series [15] (iFM (inactive fibromyalgia) patients (17), before Etanercept 10.1) it was 10.1 → 0.5. The “Medication Discontinued: Azathioprine/Sulfasalazine/Hydroxychloroquine (patients)” value was 10/11 in series [15] (No FM patients, p 0.019 across groups); 4/8 in [15] (aFM patients); 9/9 in series [15] (iFM patients). Also, the “Medication Discontinued: NSAIDs (patients)” value is recorded as 6/7 in series [15] (No FM patients, p 0.045 across groups); 1/13 in series [15] (aFM patients); 4/7 in series [15] (iFM patients). In series [11] (six patients after lorazepam or pramipexole, off Methotrexate and steroids), the “Disease activity under continued Etanercept” value was “without evidence of active disease”.
